Data on five compounds can be found in patent publication US20220144850A1, “INDOLO HEPTAMYL OXIME ANALOGUE AS PARP INHIBITOR” (Chia Tai Tianqing Pharmaceutical Group Co., Ltd., priority 2019, published 2022).

pIC50: −log10 of the molar value. Read-outs that look alike come from different tables or passages of the source.

Data set [1] concerns BRCA-wild type MDA-MB-231 cells. Nature of the data set: Anti-proliferation experiment on MDA-MB-231 CTG cells. The class given is cell-based. The conditions noted are these: Homo sapiens, MDA-MB-231, 72 h; 3 days incubation, CellTiter-Glo. The method, then:
Experimental Example 3: Anti-Proliferation Experiment on MDA-MB-231 CTG Cells
Experimental materials: test compounds; R DMEM medium; fetal bovine serum; penicillin/streptomycin antibiotic; MDA-MB-231 cell line; Envision multi-label analyzer.
MDA-MB-231 cells were seeded in a white 96-well plate by adding 80 μL of cell suspension (containing 5000 MDA-MB-231 cells) to each well. The cell plate was incubated in a CO2 incubator overnight.
Eight concentration points were set for each compound, test compounds were serially 3-fold diluted to the 8th concentration with a multichannel pipette, i.e. from 2 mM to 920 nM, and a duplicate well experiment was performed. 78 μL of medium was added to a intermediate plate, 2 μL of each of serially diluted compounds was transferred to corresponding wells of the intermediate plate, and after mixing, the mixture was transferred to the cell plate at 20 μL per well. The cell plate was incubated in a CO2 incubator for 3 days. Another cell plate was provided for reading signal values on the day of compound addition and these signal values were used as Max values in data analysis. Promega CellTiter-Glo was added to this cell plate at 25 μL per well and the luminescence signals were stabilized by incubation for 10 min at room temperature. Readings were taken using a PerkinElmer Envision multi-marker analyzer.
Promega CellTiter-Glo was added to the cell plate at 25 μL per well and the luminescence signals were stabilized by incubation for 10 min at room temperature. Readings were taken using a PerkinElmer Envision multi-marker analyzer.
Data analysis: the original data was converted to inhibition using the equation (sample−Min)/(Max−Min)×100%, and the IC50 value was then curve fitted using four parameters (obtained from the “log(inhibitor) vs. response-variable slope” model in GraphPad Prism). Table 1 provides the inhibitory activity of the compounds disclosed herein against MDA-MB-231 cell proliferation.
(Cellular ATP, detected with luciferase, serves as a proxy for viable cell number.)

The nature of data set [2]: Plasma protein binding rate, CD-1 mouse plasma (equilibrium dialysis). The class given is in vitro ADME. Particulars: CD-1 mice plasma, dialysis 4 h at 37° C. The method, then:
(§1) Experimental Example 5: Study on Plasma Protein Binding Rate
(§2) The protein binding rates of the compounds disclosed herein in plasma of human, CD-1 mice and SD rats were determined. 796 μL of blank plasma was taken from human, CD-1 mice and SD rats, and added with 4 μL of test compound working solution (400. μM) or warfarin working solution (400 μM) to achieve a final concentration of 2 μM of both the test compound and the warfarin in the plasma sample. The samples were mixed well. The final concentration of organic phase DMSO was 0.5%; 50 μL of test compound and warfarin plasma sample was pipetted into a sample receiving plate (three parallels), and a corresponding volume of blank plasma or buffer was immediately added such that the final volume of each sample well was 100 μL. The volume ratio of plasma to dialysis buffer was 1:1, and 400 μL of stop solution was added to these samples, which were used as TO samples for determination of recovery rate and stability. The TO samples were stored at 2-8° C. for subsequent treatment with other dialyzed samples; 150 μL of the test compound and warfarin plasma sample was added to a drug delivery end of each dialysis well, and 150 μL of blank dialysis buffer was added to a corresponding receiving end of the dialysis well. The dialysis plate was then sealed with a gas permeable membrane and placed in a humid, 5% CO2 incubator and incubated at 37° C. for 4 h while shaking at about 100 rpm. After the dialysis was completed, 50 μL of the dialyzed buffer sample and dialyzed plasma sample were pipetted to a new sample receiving plate. A corresponding volume of corresponding blank plasma or buffer was added to the samples such that the final volume of each sample well was 100 μL, and the volume ratio of plasma to dialysis buffer was 1:1. All samples were subjected to LC/MS analysis after protein precipitation, and the protein binding rates and the recovery rates were calculated by the following formulas: protein unbinding rate (%)=100×drug concentration passing through dialysis membrane/drug concentration not passing through dialysate; protein binding rate (%)=100−protein unbinding rate (%); recovery rate (%)=100×(drug concentration passing through dialysis membrane+drug concentration not passing through dialysate)/total drug concentration before dialysis.

Data set [3] in a line: Plasma protein binding rate, human plasma (equilibrium dialysis). The class given is in vitro ADME. The conditions noted are these: dialysis 4 h at 37° C. As to the method: as §1, §2
Data set [4] in a line: Metabolic stability in liver microsomes, human. The class given is in vitro ADME. Particulars: Human liver microsomes 0.5 mg/mL, 1 μM compound, NADPH, 37° C. The method, then:
(§3) Experimental Example 7. Metabolic Stability in Liver Microsomes
(§4) Experimental objective: to test the metabolic stability of test compounds in liver microsomes of three species.
(§5) Experimental method: 1 μM test compound and a microsome (0.5 mg/mL) were incubated at 37° C. in the presence of an NADPH regeneration system; positive controls were testosterone (3A4 substrate), propylamine propiophenone (2D6 substrate) and diclofenac (2C9 substrate), and also at 37° C., a positive control was incubated with a microsome (0.5 mg/mL) in the presence of an NADPH regenerating system; the reaction was stopped by direct mixing of the sample with cold acetonitrile containing an internal standard at various time points (0, 5, 10, 20, 30 and 60 min); the compound and microsome were incubated for 60 min in the absence of an NADPH regenerating system; one parallel (n=1) was set at each time point; the samples were analyzed by LC/MS/MS; the concentration of the compound was characterized by the ratio of the analyte peak area to the internal standard peak area.
On the technique in general: Liver microsomes are vesicles of endoplasmic reticulum, rich in cytochrome P450 enzymes.

Data set [5] is described as follows: Single-dose pharmacokinetic study in mice. The class given is in vivo. Particulars: male C57BL/6 mice; for Maximum concentration / bioavailability / clearance / half-life / Vd: IV: 1 mg/kg PO: 5 mg/kg; for bioavailability / clearance / half-life / Vd / AUC(0-t): mouse, plasma; for Vd: read-out: Apparent volume of distribution. From the text: Experimental Example 8: Single-Dose Pharmacokinetic Study in Mice
Experimental objective: to evaluate the pharmacokinetic behavior by using male C57BL/6 mice as test animals and determining the drug concentrations of the compounds in the plasma, liver and cerebrospinal fluid after single-dose administration.
Experimental method: healthy adult male C57BL/6 mice were selected for intragastric administration. A candidate compound was mixed with an appropriate amount of 10% DMSO/90% (20% hydroxypropyl-β-cyclodextrin), vortexed and sonicated to prepare a 0.5 mg/mL clear solution for later use. After the mice were administered intravenously at 1 mg/kg and orally at 5 mg/kg, whole blood was collected at certain time points, and plasma was separated, and liver and cerebrospinal fluid were collected. After pretreatment of the samples, the drug concentration was measured by LC-MS/MS, and pharmacokinetic parameters were calculated using Phoenix WinNonlin software.

Data set [6] in a line: Plasma protein binding rate, SD rat plasma (equilibrium dialysis). The class given is in vitro ADME. The conditions noted are these: Sprague-Dawley, SD rats plasma, dialysis 4 h at 37° C. As to the method:
as §1, §2

The nature of data set [7]: Metabolic stability in liver microsomes, rat. The class given is in vitro ADME. The conditions noted are these: Rat liver microsomes 0.5 mg/mL, 1 μM compound, NADPH, 37° C. As to the method: as §3, §4, §5
[8] abbreviates: intravenous 1 mg/kg, read-out: AUC0-last (intravenous injection).
Setting [9] is: oral 5 mg/kg, read-out: AUC0-last (oral).

`O=C1NOCc2c(-c3ccc(C4CCCN4)cc3)[nH]c3cc(F)cc1c23` (single isomer, unassigned) [Example 24_A]: the pIC50 (usually −log10 of the IC50, conventionally taken in molar units) in data set [1] is less than 5.00. In addition, in data set [2], the fraction unbound (commonly free concentration divided by total concentration) at 4 h, 2 μM was 0.037. In addition, in data set [3], the fraction unbound at 4 h, 2 μM is 0.073. Moreover, the “Residual content after 60 min of incubation” value (“Residual content after 60 min” below) in data set [4] was determined as 60.4%. Besides, in data set [5], the Maximum concentration is 433 nM; the bioavailability (commonly the share of a dose that reaches the circulation, judged against a reference dose that is usually intravenous) is 21.2%; the clearance was 34.9 mL/min/kg; the half-life (as a rule, how long it takes for the measured level to halve) is 2.03 h. In data set [5], the Vd is 4.21 L/kg. Moreover, in data set [5] (setting [8]), the AUC(0-t) is 1.3 µM·h. Moreover, the AUC(0-t) in data set [5] (setting [9]) amounted to 1.38 µM·h. Further, the fraction unbound at 4 h, 2 μM in data set [6] was 0.036. Moreover, the “Residual content after 60 min” value in data set [7] amounted to 60.6%.
`CC1(c2ccc(-c3[nH]c4cc(F)cc5c4c3CONC5=O)cc2F)CCCN1` (single isomer, unassigned) [Example 26_A] had a pIC50 in data set [1] of less than 5.00. This compound also gave a fraction unbound at 4 h, 2 μM in data set [2] of 0.08. For the same compound, in data set [3], the fraction unbound at 4 h, 2 μM is 0.057. Besides, the “Residual content after 60 min” value in data set [4] worked out at 29.6%. In data set [5], this compound had a Maximum concentration of 285 nM, a bioavailability of 37.9%, a clearance of 60.7 mL/min/kg and a half-life of 2.15 h. Besides, the Vd in data set [5] amounted to 8.22 L/kg. Besides, the AUC(0-t) in data set [5] (setting [8]) was 0.679 µM·h. In addition, the AUC(0-t) in data set [5] (setting [9]) came to 1.29 µM·h. Further, the fraction unbound at 4 h, 2 μM in data set [6] is 0.097. The “Residual content after 60 min” value in data set [7] came out at 34.5%.
`CC1(c2ccc(-c3[nH]c4cccc5c4c3CONC5=O)cc2)CCCN1` (stereo not drawn) [Example 6_A] gave a pIC50 in data set [1] of less than 5.00. Also, the results for the fraction unbound at 4 h, 2 μM in data set [2], in data set [3] and in data set [6] were 0.208, 0.181 and 0.176, respectively. Also, the “Residual content after 60 min” value in data set [4] stood at 53.7%; in data set [7], 55.4%.
Compound `O=C1NOCc2c(-c3ccc(C4CCCN4)c(F)c3)[nH]c3cccc1c23` (stereo not drawn) [Example 11_A] showed a pIC50 in data set [1] of less than 5.00. Moreover, the fraction unbound at 4 h, 2 μM in data set [2] was 0.101; in data set [3] it was 0.235; in data set [6] it was 0.035. The “Residual content after 60 min” value in data set [4] stood at 73.8%; in data set [7] it was 58.1%.
In the case of `CC1(c2ccc(-c3[nH]c4cc(F)cc5c4c3CONC5=O)cc2)CCCN1` (stereo not drawn) [Example 25_A], the pIC50 in data set [1] was less than 5.00. For the same compound, the fraction unbound at 4 h, 2 μM is 0.104 in data set [2], 0.149 in data set [3] and 0.077 in data set [6]. Moreover, the “Residual content after 60 min” value in data set [4] was found to be 35.9%; in data set [7], 31.8%. The compound further displayed a Maximum concentration in data set [5] of 240 nM. For the same compound, in data set [5], the bioavailability is 24.8%. Also, the clearance in data set [5] is 41 mL/min/kg. In data set [5], this compound gave a half-life of 3.02 h. Moreover, the Vd in data set [5] was 9.44 L/kg. Also, the AUC(0-t) in data set [5] (setting [8]) was 0.958 µM·h; in data set [5] (setting [9]) it was 1.19 µM·h.
